# Experimental data from patent US5436229A, “Bisulfite adducts of arginine aldehydes” (Eli Lilly and Company, priority 1994, dated 1995).
# Non-standard residues stand in square brackets, D forms with d. Residues, ends and D or L forms follow the SMILES beside them. dNMeCha = CN[C@H](CC1CCCCC1)C(=O)O
# Key:
# Assay type in all cases: biochemical
# [1] = test system: human plasma; test: Human plasma anticoagulation, activated partial thromboplastin time (APTT)
# Procedure, shortened: (§1)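 Compounds added across a wide concentration range to human plasma; APTT, PT and TT clotting times measured on a coagulation instrument, bovine thrombin used for plasma assays. Concentration doubling clotting time estimated by linear extrapolation.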
# [2] = test system: human plasma; test: Human plasma anticoagulation, thrombin time (TT)
# Procedure, shortened: as §1
# [3] = test system: human plasma; test: Human plasma anticoagulation, prothrombin time (PT)
# Procedure, shortened: as §1
# [4] = target: T1, factor Xa (Homo sapiens, UniProt P00742); test: Serine protease inhibition (Kass), factor Xa
# T1 construct: Human factors X, Xa, IXa, XIa, and XIIa are purchased from Enzyme Research Laboratories; purchased Enzyme Research Laboratories, South Bend, Ind
# T1 sequence (P00742 235-488 limits assumed): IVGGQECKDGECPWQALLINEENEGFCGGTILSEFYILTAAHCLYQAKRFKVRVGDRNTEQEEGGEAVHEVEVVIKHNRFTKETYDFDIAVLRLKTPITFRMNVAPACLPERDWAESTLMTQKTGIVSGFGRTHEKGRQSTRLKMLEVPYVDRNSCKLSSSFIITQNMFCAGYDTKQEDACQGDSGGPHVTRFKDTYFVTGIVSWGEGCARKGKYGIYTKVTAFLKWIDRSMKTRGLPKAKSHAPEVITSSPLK
# T1 sequence (P00742 41-179 partner limits assumed): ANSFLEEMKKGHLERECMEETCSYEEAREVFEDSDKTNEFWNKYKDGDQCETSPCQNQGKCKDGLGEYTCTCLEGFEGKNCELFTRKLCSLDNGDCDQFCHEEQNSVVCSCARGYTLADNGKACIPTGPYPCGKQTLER
# Procedure, shortened: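 Chromogenic p-nitroanilide substrate assays run as for human thrombin; trypsin with N-Benzoyl-Phe-Val-Arg-p-nitroanilide, human factor Xa with N-Benzoyl-Ile-Glu-Gly-Arg-p-nitroanilide. Values are association constants (Kass).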
structure (smiles),measurement,setting,value
"CN[C@H](CC1CCCCC1)C(=O)N1CCC[C@H]1C(=O)N[C@H](C=O)CCCNC(=N)N.Cl [Example 75, N-methyl-D-cyclohexylalanyl-L-Prolinyl-L-Arginine Aldehyde Hydrochloride] (H-[dNMeCha]-Pro-Arg-aldehyde)",2 × Clotting time APTT,[1],420 ng/mL
same,2 × Clotting time TT,[2],18 ng/mL
same,2 × Clotting time PT,[3],720 ng/mL
same,Kass Xa,[4],5.6 L/mol × 10^6
